Publication PMC9221290, “Alkaloids of Dicranostigma franchetianum (Papaveraceae) and Berberine Derivatives as a New Class of Antimycobacterial Agents” (Biomolecules, 2022)
In brackets after ≈: the same amount, converted by molar mass. Read-outs that look alike come from different tables or passages of the source.

Key:
[1] = system: Mycolicibacterium aurum DSM 43999 (ATCC 23366); assay: Antimycobacterial microdilution broth assay (resazurin), M. aurum; format: cell-based; settings: Mycolicibacterium aurum, 72 h
[2] = system: Mtb H37Ra ITM-M006710 (ATCC 9431); assay: Antimycobacterial microdilution broth assay (resazurin), Mtb H37Ra; format: cell-based, Mycobacterium tuberculosis; settings: Mycobacterium tuberculosis, read-out: MIC Mtb H37Ra
[3] = system: HepG2 cells; assay: cells; settings: Homo sapiens, HepG2, 24 h
[4] = in vitro; settings: human, % of cell viability compared to control; for viability at 0.1 µM: HepG2, 0.1 µM; for viability at 1 µM: HepG2, 1 µM; for viability at 5 µM: HepG2, 5 µM; for viability at 10 µM: HepG2, 10 µM; for viability at 20 µM: HepG2, 20 µM; for viability at 30 µM: HepG2, 30 µM; for viability at 40 µM: HepG2, 40 µM; for viability at 50 µM: HepG2, 50 µM; for viability at 25 µM: HepG2, 25 µM; for viability at 75 µM: HepG2, 75 µM; for viability at 100 µM: HepG2, 100 µM
[5] = system: Mycolicibacterium smegmatis DSM 43465 (ATCC 607); assay: Antimycobacterial microdilution broth assay (resazurin), M. smegmatis; format: cell-based; settings: Mycolicibacterium smegmatis, 48 h
[6] = system: Mycobacterium kansasii DSM 44162 (ATCC 12478); assay: Antimycobacterial microdilution broth assay (resazurin), M. kansasii; format: cell-based; settings: Mycobacterium kansasii, 96 h
[7] = system: Mycobacterium avium DSM 44156 (ATCC 25291); assay: Antimycobacterial microdilution broth assay (resazurin), M. avium; format: cell-based; settings: Mycobacterium avium, 96 h, read-out: MIC M. avium, microdilution broth, resazurin, 96 h
[8] = system: five Mycobacterium or Mycolicibacterium strains; assay: organism not typed; format: cell-based; settings: read-out: MICs against all tested mycobacterial strains
[9] = system: HepG2 cells
[10] = system: methicillin-resistant Staphylococcus aureus; parameters: method as in PMID 21341176; settings: read-out: IC50 against methicillin-resistant Staphylococcus aureus; cited from earlier work
[11] = system: Aspergillus fumigatus; parameters: method as in PMID 21341176; settings: read-out: IC50 against Aspergillus fumigatus; cited from earlier work
[12] = system: M. intracellulare; settings: cited from earlier work
[13] = system: Mycolicibacterium smegmatis; parameters: method as in PMID 9784149; settings: cited from earlier work
[14] = system: pulmonary tuberculosis; parameters: method as in PMID 34745081; settings: mice with pulmonary tuberculosis; cited from earlier work
[15] = read-out: MIC M. aurum, microdilution broth, resazurin, 72 h
[16] = 120 h, microdilution broth, resazurin, 120 h
[17] = calculated from MIC (µg/mL) and MW
[18] = read-out: HepG2 IC50, 1. measurement, MTT, 24 h, single measurement 1
[19] = read-out: HepG2 IC50, 2. measurement, MTT, 24 h, single measurement 2
[20] = read-out: HepG2 IC50, 3. measurement, MTT, 24 h, single measurement 3
[21] = read-out: HepG2 IC50, MTT, 24 h incubation
[22] = read-out: MIC M. smegmatis, microdilution broth, resazurin, 48 h
[23] = read-out: MIC M. kansasii, microdilution broth, resazurin, 96 h

COc1ccc2cc3[n+](cc2c1OCc1ccccc1Br)CCc1cc2c(cc1-3)OCO2 [16e, 9-O-(2-brombenzyl)berberine chloride]
MIC [1, 15]: 0.78 µg/mL
MIC [2, 16]: 1.56 µg/mL
MIC [2, 17]: 2.96 µM
IC50 [3, 18]: 11.5 µM
IC50 [3, 19]: 11.8 µM
IC50 [3, 20]: 12 µM
IC50 [3, 21]: 11.6 ± 0.29 µM
viability at 0.1 µM ([4]; 1. measurement): 102%
viability at 1 µM ([4]; 1. measurement): 96.3%
viability at 5 µM ([4]; 1. measurement): 66.9%
viability at 10 µM ([4]; 1. measurement): 48.6%
viability at 20 µM ([4]; 1. measurement): 40.7%
viability at 30 µM ([4]; 1. measurement): 34.3%
viability at 40 µM ([4]; 1. measurement): 24.6%
viability at 50 µM ([4]; 1. measurement): 10.5%
viability at 0.1 µM ([4]; 2. measurement): 95.5%
viability at 1 µM ([4]; 2. measurement): 93.8%
viability at 5 µM ([4]; 2. measurement): 66.2%
viability at 10 µM ([4]; 2. measurement): 53.6%
viability at 20 µM ([4]; 2. measurement): 46.1%
viability at 30 µM ([4]; 2. measurement): 36.5%
viability at 40 µM ([4]; 2. measurement): 16.2%
viability at 50 µM ([4]; 2. measurement): 2.08%
viability at 0.1 µM ([4]; 3. measurement): 92%
viability at 1 µM ([4]; 3. measurement): 98.5%
viability at 5 µM ([4]; 3. measurement): 68%
viability at 10 µM ([4]; 3. measurement): 53.7%
viability at 20 µM ([4]; 3. measurement): 45.1%
viability at 30 µM ([4]; 3. measurement): 34.5%
viability at 40 µM ([4]; 3. measurement): 14.8%
viability at 50 µM ([4]; 3. measurement): 2.75%
MIC [5, 22]: 0.39 µg/mL
MIC [6, 23]: 3.12 µg/mL
MIC [7]: 1.56 µg/mL
MIC [8]: 0.39 to 3.12 µg/mL
SI (selectivity index) [9]: 3.92
IC50 [9, 21]: 11.8 ± 0.29 µM

COc1ccc2cc3[n+](cc2c1OCc1ccc(Cl)c(Cl)c1)CCc1cc2c(cc1-3)OCO2 [16k, 9-O-(3,4-dichlorbenzyl)berberine chloride]
MIC [1, 15]: 1.56 µg/mL
MIC [2, 16]: 1.56 µg/mL
MIC [2, 17]: 2.78 µM
IC50 [3, 18]: 13.3 µM
IC50 [3, 19]: 14.8 µM
IC50 [3, 20]: 9.9 µM
IC50 [3, 21]: 12.7 ± 2.51 µM
viability at 1 µM ([4]; 1. measurement): 97.6%
viability at 5 µM ([4]; 1. measurement): 66.5%
viability at 10 µM ([4]; 1. measurement): 50.4%
viability at 25 µM ([4]; 1. measurement): 43.4%
viability at 50 µM ([4]; 1. measurement): 35%
viability at 75 µM ([4]; 1. measurement): 13.2%
viability at 100 µM ([4]; 1. measurement): 2.33%
viability at 1 µM ([4]; 2. measurement): 97.8%
viability at 5 µM ([4]; 2. measurement): 79.2%
viability at 10 µM ([4]; 2. measurement): 46.7%
viability at 25 µM ([4]; 2. measurement): 35.5%
viability at 50 µM ([4]; 2. measurement): 35%
viability at 75 µM ([4]; 2. measurement): 28.2%
viability at 100 µM ([4]; 2. measurement): 4.02%
viability at 1 µM ([4]; 3. measurement): 85.7%
viability at 5 µM ([4]; 3. measurement): 67%
viability at 10 µM ([4]; 3. measurement): 46.9%
viability at 25 µM ([4]; 3. measurement): 43.6%
viability at 50 µM ([4]; 3. measurement): 11.7%
viability at 75 µM ([4]; 3. measurement): 0.77%
viability at 100 µM ([4]; 3. measurement): 0.81%
MIC [5, 22]: 1.56 µg/mL
MIC [6, 23]: 6.25 µg/mL
MIC [7]: 1.56 µg/mL
SI (selectivity index) [9]: 4.55

CCOC1c2c(ccc(OC)c2OC)-c2ccc3cc4c(cc3c2N1C)OCO4 (stereo not drawn) [compound 3, 6-ethoxydihydrochelerythrine]
MIC [1, 15]: 15.6 µg/mL (≈ 39.7 µM)
MIC [2, 16]: 31.2 µg/mL
MIC [2, 17]: 79 µM
MIC [5, 22]: 31.2 µg/mL (≈ 79.4 µM)
MIC [6, 23]: 31.2 µg/mL (≈ 79.4 µM)
MIC [7]: 31.2 µg/mL (≈ 79.4 µM)
MIC [8]: 15.6 to 31.2 µg/mL (≈ 39.7 to 79.4 µM)

COc1ccc2c(c1OC)C(OC1c3c(ccc(OC)c3OC)-c3ccc4cc5c(cc4c3N1C)OCO5)N(C)c1c-2ccc2cc3c(cc12)OCO3 (stereo not drawn) [compound 5, bis-[6-(5,6-dihydrochelerythrinyl)]ether]
MIC [1, 15]: 31.2 µg/mL (≈ 43.8 µM)
IC50 [10]: 1 µM
MIC [2, 16]: 31.2 µg/mL
MIC [2, 17]: 44 µM
IC50 [11]: 0.9 µM
MIC [5, 22]: 31.2 µg/mL (≈ 43.8 µM)
MIC [6, 23]: 31.2 µg/mL (≈ 43.8 µM)
MIC [7]: 31.2 µg/mL (≈ 43.8 µM)
MIC [8]: 15.6 to 31.2 µg/mL (≈ 21.9 to 43.8 µM)

COc1ccc2cc3[n+](cc2c1OC)CCc1cc2c(cc1-3)OCO2 [compound 16, berberine]
MIC ([1]; read-out: MIC M. aurum): 62.5 µg/mL
MIC [2, 16]: 125 µg/mL
MIC [2, 17]: 336 µM
MIC against M. intracellulare [12]: 1.56 µg/mL
MIC against M. intracellulare ([12]; ref Gentry et al. 1998): 200 µg/mL
MIC against Mycolicibacterium smegmatis [13]: 25 µg/mL
MIC ([5]; microdilution broth, resazurin, read-out: MIC M. smegmatis): 62.5 µg/mL
MIC ([6]; read-out: MIC M. kansasii): 31.2 µg/mL
MIC [7]: 31.2 µg/mL
effects on bacterial burden [14]: no additive or synergistic effects
lung pathology [14]: decreased lung pathology
